Results taken from the NIST ThermoML archive (doi:10.1016/j.jct.2011.06.019).

How the values were obtained:
[1] = molar heat capacity at constant pressure; details: Liquid, Flow calorimetry
[2] = molar heat capacity at constant pressure; xn = mol fraction of the nth substance listed; details: 313.15 K, Liquid, Flow calorimetry

CCO [ethanol]
molar heat capacity at constant pressure [J/K/mol], [1]
Details | 100 kPa | 5000 kPa | 10000 kPa | 15000 kPa | 20000 kPa
273.15 K | 103.5 | 103.1 | 102.1 | 101.7 | 100.7
293.15 K | 111.2 | 110.2 | 109 | 108.1 | 107.4
313.15 K | 119.2 | 118 | 116.8 | 115.5 | 114.9
333.15 K | 130 | 129.1 | 127.7 | 126 | 124.7

CCCCCCC [heptane] + CCO
molar heat capacity at constant pressure [J/K/mol], [2]
Details | x1 = 0.1 | x1 = 0.2001 | x1 = 0.3 | x1 = 0.4001 | x1 = 0.5001 | x1 = 0.6 | x1 = 0.6999 | x1 = 0.7999 | x1 = 0.9 | x1 = 1
100 kPa | 134.2 | 149.4 | 163.6 | 176.8 | 190.9 | 202.9 | 215.3 | 224.9 | 234.8 | 233.8
5000 kPa | 132.5 | 147.1 | 160.8 | 174.2 | 187.6 | 200 | 211.9 | 221.4 | 230.4 | 230.3
10000 kPa | 130.7 | 146.1 | 158.6 | 171.6 | 185 | 196.7 | 209 | 218.7 | 226.9 | 226.2
15000 kPa | 129.5 | 143.6 | 156.7 | 169.4 | 182.5 | 194.8 | 205.9 | 215.9 | 223.8 | 223.1
20000 kPa | 128.4 | 142.4 | 155.3 | 168.3 | 180.9 | 193.1 | 204 | 213.3 | 222.6 | 221.6

Cc1ccccc1 [toluene] + CCO
molar heat capacity at constant pressure [J/K/mol], [2]
Details | x1 = 0.1003 | x1 = 0.2007 | x1 = 0.2999 | x1 = 0.4002 | x1 = 0.5 | x1 = 0.6001 | x1 = 0.7 | x1 = 0.8 | x1 = 0.9001 | x1 = 1
100 kPa | 130.1 | 138.3 | 146.1 | 153.2 | 159.1 | 163.7 | 167.7 | 169.5 | 168.5 | 163.5
5000 kPa | 128.7 | 136.6 | 144.2 | 151.3 | 157.1 | 162 | 165.3 | 167.5 | 167.3 | 161.3
10000 kPa | 127.3 | 135.5 | 143.2 | 150 | 155.7 | 160.2 | 164.1 | 166.3 | 165.9 | 159.9
15000 kPa | 126.1 | 134.4 | 141.9 | 148.5 | 154.3 | 158.6 | 162.6 | 164.9 | 165.2 | 158.9
20000 kPa | 125.1 | 133.6 | 140.9 | 147.5 | 153.4 | 158.1 | 161.8 | 164 | 163.6 | 157.8

CCO [ethanol] + CCCCCCC
[2], x2 = 0
Details | molar heat capacity at constant pressure [J/K/mol]
100 kPa | 119.2
5000 kPa | 118
10000 kPa | 116.8
15000 kPa | 115.5
20000 kPa | 114.9

CCCCCCC [heptane]
molar heat capacity at constant pressure [J/K/mol], [1]
Details | 100 kPa | 5000 kPa | 10000 kPa | 15000 kPa | 20000 kPa
273.15 K | 216.2 | 213.1 | 210.9 | 208.1 | 207.2
293.15 K | 224.1 | 223 | 218.2 | 216.8 | 214.4
313.15 K | 233.8 | 230.3 | 226.2 | 223.1 | 221.6
333.15 K | 241.9 | 238.7 | 235 | 232 | 229.3

CCO [ethanol] + Cc1ccccc1
[2], x2 = 0
Details | molar heat capacity at constant pressure [J/K/mol]
100 kPa | 119.2
5000 kPa | 118
10000 kPa | 116.8
15000 kPa | 115.5
20000 kPa | 114.9
